Assay results: paper PMC10609013, “Solubility and Thermodynamic Analysis of Isotretinoin in Different (DMSO + Water) Mixtures” (Molecules, 2023)
Several values for one entry are separate records, joined by “and”; a condition that tells them apart may be missing. Equal values may be shown once.

Legend:
[1] = Shake flask solubility of ITN in {DMSO (1) + H2O (2)} mixes, HPLC; format: physicochemical; settings: DMSO mass fraction m = 1.0, T = 318.2 K, 101.1 kPa
Protocol: A series of {DMSO (1) + H2O (2)} solutions, with DMSO mass percentages ranging from 0.10 to 0.90, was examined. Three replicates of each {DMSO (1) + H2O (2)} combination were taken. ITN’s mole fraction solubility versus mass fraction of DMSO (m = 0.0–1.0) and neat DMSO and H2O was measured using a shake flask approach at 298.2–318.2 K and 101.1 kPa. In essence, the known amounts of each {DMSO (1) + H2O (2)} combination and neat DMSO and H2O were combined with extra ITN crystals in triplicate. The equilibrium was achieved by saturating the resultant mixes in a WiseBath® WSB shaking water bath (Model WSB-18/30/-45, Daihan Scientific Co. Ltd., Seoul, Korea) at a shaking speed of 100 rpm for 72 h. In order to evaluate the equilibrium time, the preliminary experiments were performed at different time intervals. […] The saturated solutions were again removed from the shaker after they had reached equilibrium and centrifuged for 30 min at 5000 rpm. A previously established environmentally friendly HPLC method was used to assess the ITN content after the supernatants were isolated and diluted (as required). The identification of ITN was carried out via a Nucleodur (dimensions: 150 mm × 4.6 mm and particle size: 5 μm) reversed-phase C18 analytical column at 298.2 K. The environmentally friendly mobile used was a binary mixture of ethyl acetate and ethanol (50:50% v v^−1). The mobile phase was delivered with a flow speed of 1 mL min^−1. The ITN measurements were performed at a wavelength of 354 nm. The sample volume was 20 μL, which was injected using a Waters autosampler. The Analytical GREEnness (AGREE) score was determined to evaluate the eco-friendliness nature of the HPLC method. The AGREE score was predicted to be 0.76 for the present HPLC method, indicating the eco-friendly nature of the HPLC method. ITN mole fraction solubilities (xe) were calculated using their standard formulae described in our previous work.

[2] = Activity coefficients (γi) of ITN, Equation (4); format: physicochemical
Excerpt: Finally, the x^idl values for ITN were derived from Equation (2). Equation (4) was used to derive the γi values for ITN in numerous {DMSO (1) + H2O (2)} mixes including neat DMSO and H2O [56, 58]:(4) γi=x^idl/xe

Q: For CC1=C(/C=C/C(C)=C/C=C/C(C)=C\C(=O)O)C(C)(C)CCC1 [ITN, isotretinoin], which xe experimental solubility [1] is on record?
A: 1.02 × 10^−1 mole fraction and 1.02 (0.01) × 10^−1 mole fraction

Q: And the γi activity coefficient ([2]; DMSO mass fraction m = 0.0, T = 298.2 K)?
A: 1,366,467

Q: What about the γi activity coefficient ([2]; DMSO mass fraction m = 0.0, T = 303.2 K) of the same compound?
A: 972,627.0

Q: What about the γi activity coefficient ([2]; DMSO mass fraction m = 0.0, T = 308.2 K) of the same compound?
A: 611,320.0

Q: And the γi activity coefficient ([2]; DMSO mass fraction m = 0.0, T = 313.2 K)?
A: 441,076.0

Q: And the γi activity coefficient ([2]; DMSO mass fraction m = 0.0, T = 318.2 K)?
A: 326,128.0

Q: And the γi activity coefficient ([2]; DMSO mass fraction m = 0.1, T = 298.2 K)?
A: 384,000.0

Q: And the γi activity coefficient ([2]; DMSO mass fraction m = 0.1, T = 303.2 K)?
A: 278,000.0

Q: What about the γi activity coefficient ([2]; DMSO mass fraction m = 0.1, T = 308.2 K) of the same compound?
A: 187,000.0

Q: What about the γi activity coefficient ([2]; DMSO mass fraction m = 0.1, T = 313.2 K) of the same compound?
A: 136,000.0

Q: What about the γi activity coefficient ([2]; DMSO mass fraction m = 0.1, T = 318.2 K) of the same compound?
A: 106,000.0

Q: What about the γi activity coefficient ([2]; DMSO mass fraction m = 0.2, T = 298.2 K) of the same compound?
A: 111,979.0

Q: What about the γi activity coefficient ([2]; DMSO mass fraction m = 0.2, T = 303.2 K) of the same compound?
A: 83,952.80

Q: And the γi activity coefficient ([2]; DMSO mass fraction m = 0.2, T = 308.2 K)?
A: 58,249.00

Q: What about the γi activity coefficient ([2]; DMSO mass fraction m = 0.2, T = 313.2 K) of the same compound?
A: 43,099.10

Q: What about the γi activity coefficient ([2]; DMSO mass fraction m = 0.2, T = 318.2 K) of the same compound?
A: 34,943.20

Q: What about the γi activity coefficient ([2]; DMSO mass fraction m = 0.3, T = 298.2 K) of the same compound?
A: 31,441.80

Q: What about the γi activity coefficient ([2]; DMSO mass fraction m = 0.3, T = 303.2 K) of the same compound?
A: 24,298.30

Q: What about the γi activity coefficient ([2]; DMSO mass fraction m = 0.3, T = 308.2 K) of the same compound?
A: 17,811.50

Q: What about the γi activity coefficient ([2]; DMSO mass fraction m = 0.3, T = 313.2 K) of the same compound?
A: 13,802.30

Q: What about the γi activity coefficient ([2]; DMSO mass fraction m = 0.3, T = 318.2 K) of the same compound?
A: 11,402.70

Q: What about the γi activity coefficient ([2]; DMSO mass fraction m = 0.4, T = 298.2 K) of the same compound?
A: 9161.740

Q: And the γi activity coefficient ([2]; DMSO mass fraction m = 0.4, T = 303.2 K)?
A: 7310.360

Q: What about the γi activity coefficient ([2]; DMSO mass fraction m = 0.4, T = 308.2 K) of the same compound?
A: 5568.540

Q: And the γi activity coefficient ([2]; DMSO mass fraction m = 0.4, T = 313.2 K)?
A: 4372.740

Q: What about the γi activity coefficient ([2]; DMSO mass fraction m = 0.4, T = 318.2 K) of the same compound?
A: 3713.1570

Q: What about the γi activity coefficient ([2]; DMSO mass fraction m = 0.5, T = 298.2 K) of the same compound?
A: 2602.340

Q: And the γi activity coefficient ([2]; DMSO mass fraction m = 0.5, T = 303.2 K)?
A: 2166.250

Q: And the γi activity coefficient ([2]; DMSO mass fraction m = 0.5, T = 308.2 K)?
A: 1703.980

Q: What about the γi activity coefficient ([2]; DMSO mass fraction m = 0.5, T = 313.2 K) of the same compound?
A: 1429.250

Q: What about the γi activity coefficient ([2]; DMSO mass fraction m = 0.5, T = 318.2 K) of the same compound?
A: 1233.060

Q: What about the γi activity coefficient ([2]; DMSO mass fraction m = 0.6, T = 298.2 K) of the same compound?
A: 751.8650

Q: And the γi activity coefficient ([2]; DMSO mass fraction m = 0.6, T = 303.2 K)?
A: 644.3650

Q: And the γi activity coefficient ([2]; DMSO mass fraction m = 0.6, T = 308.2 K)?
A: 534.7140

Q: What about the γi activity coefficient ([2]; DMSO mass fraction m = 0.6, T = 313.2 K) of the same compound?
A: 438.6560

Q: And the γi activity coefficient ([2]; DMSO mass fraction m = 0.6, T = 318.2 K)?
A: 399.5110

Q: What about the γi activity coefficient ([2]; DMSO mass fraction m = 0.7, T = 298.2 K) of the same compound?
A: 211.8050

Q: What about the γi activity coefficient ([2]; DMSO mass fraction m = 0.7, T = 303.2 K) of the same compound?
A: 189.9250

Q: And the γi activity coefficient ([2]; DMSO mass fraction m = 0.7, T = 308.2 K)?
A: 164.4500

Q: What about the γi activity coefficient ([2]; DMSO mass fraction m = 0.7, T = 313.2 K) of the same compound?
A: 146.1890

Q: What about the γi activity coefficient ([2]; DMSO mass fraction m = 0.7, T = 318.2 K) of the same compound?
A: 133.4190

Q: What about the γi activity coefficient ([2]; DMSO mass fraction m = 0.8, T = 298.2 K) of the same compound?
A: 61.49

Q: What about the γi activity coefficient ([2]; DMSO mass fraction m = 0.8, T = 303.2 K) of the same compound?
A: 56.72

Q: What about the γi activity coefficient ([2]; DMSO mass fraction m = 0.8, T = 308.2 K) of the same compound?
A: 51.11

Q: What about the γi activity coefficient ([2]; DMSO mass fraction m = 0.8, T = 313.2 K) of the same compound?
A: 46.46

Q: What about the γi activity coefficient ([2]; DMSO mass fraction m = 0.8, T = 318.2 K) of the same compound?
A: 42.45

Q: What about the γi activity coefficient ([2]; DMSO mass fraction m = 0.9, T = 298.2 K) of the same compound?
A: 17.6

Q: What about the γi activity coefficient ([2]; DMSO mass fraction m = 0.9, T = 303.2 K) of the same compound?
A: 16.68

Q: And the γi activity coefficient ([2]; DMSO mass fraction m = 0.9, T = 308.2 K)?
A: 16.02

Q: What about the γi activity coefficient ([2]; DMSO mass fraction m = 0.9, T = 313.2 K) of the same compound?
A: 14.84

Q: What about the γi activity coefficient ([2]; DMSO mass fraction m = 0.9, T = 318.2 K) of the same compound?
A: 14.42

Q: And the γi activity coefficient ([2]; DMSO mass fraction m = 1.0, T = 298.2 K)?
A: 5.057

Q: And the γi activity coefficient ([2]; DMSO mass fraction m = 1.0, T = 303.2 K)?
A: 4.988

Q: And the γi activity coefficient ([2]; DMSO mass fraction m = 1.0, T = 308.2 K)?
A: 4.919

Q: And the γi activity coefficient ([2]; DMSO mass fraction m = 1.0, T = 313.2 K)?
A: 4.829

Q: What about the γi activity coefficient ([2]; DMSO mass fraction m = 1.0, T = 318.2 K) of the same compound?
A: 4.791
